Assay results reported in patent publication US5668134A, “Method for preventing or reducing photosensitivity and/or phototoxicity reactions to medications” (priority 1994, dated 1997).
Where a name gives a salt, the structure may show the parent alone. Read-outs that look alike come from different tables or passages of the source.

What was measured:
skin = conditions: humans and animals; cited from earlier work
[1] = Pharmacokinetics in renally impaired patients; format: in vivo, human; conditions: single doses
Haemophilus influenzae = test: Activity in vitro and in clinical infections; format: cell-based
[2] = Tissue or fluid to plasma ratios and blister fluid distribution after oral administration; format: in vivo, human; conditions: for Kp: oral, read-out: Mean Tissue or Fluid to Plasma Ratio
Source text: The following are mean tissue or fluid to plasma ratios of lomefloxacin following oral administration.
Equilibrium between the serum and blister fluid is achieved approximately two hours postdose, with a partition coefficient of 1.0 (blister fluid:serum). The concentration vs. time profiles in blister fluid following single dose administration are similar to those obtained at steady-state during a once daily dosing regimen.

Enterobacter cloacae = test: Activity in vitro and in clinical infections; format: cell-based
[3] = Example 1: general pharmacokinetics in volunteers; format: in vivo, human
Protocol: In 6 fasting healthy male volunteers, approximately 95% to 98% of a single oral dose of lomefloxacin HCl was absorbed. […] Mean plasma concentration increased proportionally between 100 and 400 mg as shown below.
In 6 healthy male volunteers administered 400 mg of lomefloxacin HCl on an empty stomach q.d. for 7 days, the following mean pharmacokinetic parameter values were obtained: [formula]
The elimination half-life in 8 subjects with normal renal function was approximately 8 hours. At 24 hours post dose, subjects with normal renal function receiving single doses of 200 or 400 mg lomefloxacin HCl had mean plasma lomefloxacin HCl concentrations of 0.10 and 0.24 μg/ml, respectively. Steady-state concentrations were achieved within 48 hours of initiating therapy with once-a-day dosing.
Approximately 65% of an orally administered dose of lomefloxacin HCl was excreted in the urine as unchanged drug in patients with normal renal function. Following a 400 mg dose of lomefloxacin HCl administered q.d. for 7 days, the mean urine concentration was in excess of 300 μg/ml 4 hours post dose. The mean urine concentration exceeded 35 μg/ml for at least 24 hours after dosing.
The urinary excretion of lomefloxacin HCl was virtually complete within 72 hours after cessation of dosing, with approximately 65% of the dose being recovered as parent drug and 9% as its glucuronide metabolite.

[4] = test system: uncomplicated urinary tract infection; test: Example 4: evening dosing in uncomplicated urinary tract infection; format: in vivo, human; conditions: 200 mg at night for 3 nights
Protocol: Patients with uncomplicated urinary tract infection were randomized to receive lomefloxacin HCl 200 mg taken at night for 3 nights and trimethoprim in a double-blind study.

[5] = Food effect on pharmacokinetics; format: in vivo, human
[6] = test system: bacterial enzyme DNA gyrase; test: Interference with bacterial DNA gyrase; format: biochemical
[7] = Solubility of lomefloxacin HCl in urine; format: physicochemical; conditions: human
Protocol: Following a single 400 mg dose of lomefloxacin HCl, the solubility of lomefloxacin HCl in urine usually exceeded its peak urinary concentration 2 to 6 fold.

Pseudomonas aeruginosa = test: Activity in vitro and in clinical infections; format: cell-based
Escherichia coli = test: Activity in vitro and in clinical infections; format: cell-based
[8] = test system: Moraxella (Branhamella) catarrhalis; test: Activity in vitro and in clinical infections; format: cell-based
Serum protein binding = format: in vitro ADME
[9] = Pharmacokinetics in the geriatric population; format: in vivo, human
Source text: This slower elimination most likely reflects the decreased renal function normally observed in the geriatric population.

[10] = test system: skin of healthy volunteers; conditions: in vivo
Protocol: The number of skin patches with edema, or local swelling of the skin surface, were also counted. MEDs were measured separately for UVA and UVB radiation, and for UVA radiation alone. The baseline MED was defined in the manner described hereinabove. The 24 hour evaluation was allowed to be performed in the morning of Study Day 1. Severity of reactions causing edema and/or blisters were graded under the following grading system:
Severity was assessed by comparing the numbers of subjects with responses graded as 2 (edema) or 3 (blisters).

Klebsiella pneumoniae = test: Activity in vitro and in clinical infections; format: cell-based
[11] = Pharmacokinetics of lomefloxacin in humans (general description); format: in vivo, human
[12] = test system: skin of healthy volunteers; conditions: in vivo; remark: listed apart in the source
Source text: The relationship between plasma concentration at time of irradiation and delayed MEDUVA was explored using regression analysis by testing the equality of the slopes of the regression of delayed MEDUVA on plasma concentration, obtaining estimates of the parameters of the regression line, and determining the correlation coefficient.

## CCn1cc(C(=O)O)c(=O)c2cc(F)c(N3CCNC(C)C3)c(F)c21 (racemic) [lomefloxacin HCl, monohydrochloride salt of (±)-1-ethyl-6,8-difluoro-1,4-dihydro-7-(3-methyl-1-piperazinyl)-4-oxo-3-quinolinecarboxylic acid]
skin
  photoreactions of quinolones: dose-dependent, drug-induced, UVA required photosensitivity reaction
[1]
  peak concentrations versus renal function: not affected by the degree of renal function
Haemophilus influenzae
  activity against most strains: active against most strains
[2]; Blister Fluid
  Kp: 1
[2]; Bronchial mucosa
  Kp: 2.1
[2]; Bronchial secretions
  Kp: 0.6
[2]; Prostatic tissue
  Kp: 2
[2]; Sputum
  Kp: 1.3
[2]; Urine
  Kp: 140
[2]; inflammatory exudate fluid of blisters
  terminal half-life in blister fluid versus serum: same terminal half-life
[2]; postdose
  time to equilibrium between serum and blister fluid: approximately two
Enterobacter cloacae
  activity against most strains: active against most strains
[3]; human, in vivo
  glucuronide metabolite recovered in urine: 9%
  time to steady-state concentrations: ≤ 48 h
  time to virtually complete urinary excretion: ≤ 72 h
[3]; human, in vivo, po
  CL renal: 145 mL/min
  Fa: 95 to 98%
  Tmax: 0.8 to 1.4 h
  half-life: ~480 min
[3]; single daily dosing, normal renal function
  drug accumulation: no drug accumulation
[4]
  overall incidence of adverse events: 18%
  photosensitivity reactions: no photosensitivity reactions reported
[4]; 7-9 days posttreatment
  clinical success in evaluable patients: 98.1%
[5]
  decrease of Cmax with food: 18%
  decrease of extent of absorption (AUC) with food: 12%
  delay of Tmax with food: 41%
[5]; human, in vivo, with food
  Tmax: 2 h
[6]
  mechanism of bactericidal action: interference with the activity of the bacterial enzyme DNA gyrase
[7]; pH 5.2
  solubility: 7800 µg/mL
[7]; pH 6.5
  solubility: 2400 µg/mL
[7]; pH 8.12
  solubility: 3030 µg/mL
Pseudomonas aeruginosa
  activity against most strains: active against most strains
Escherichia coli
  activity against most strains: active against most strains
[8]
  activity against most strains: active against most strains
Serum protein binding
  fraction unbound: ~0.9
[9]; elderly vs younger subjects
  increase of AUC: approximately 33%
  reduction of plasma clearance: approximately 25%
[9]; human, in vivo, 16 elderly volunteers, single 400 mg dose
  half-life: 480 min
[9]; human, plasma, 16 elderly volunteers, single 400 mg dose, read-out: peak plasma concentration, mean
  Cmax: 4200 ng/mL
[9]; single 400 mg dose
  drug absorption in the elderly: unaffected in the elderly
[10]
  severity of UVA+UVB radiation-induced photoreactions versus baseline: no change
  subjects with edema or blisters on the sites of radiation, UVA: sixty-nine
Klebsiella pneumoniae
  activity against most strains: active against most strains
[11]; 400 mg oral
  drug concentrations in many body tissues and fluids versus systemic circulation: comparable to or higher than drug concentrations in systemic circulation
[11]; healthy volunteers
  absorption rate: rapidly absorbed
  time to steady-state: by the end of the second day of dosing
[11]; human urine
  number of metabolites identified: 5 metabolites
[11]; human, feces, oral dose, read-out: unchanged drug recovered in the feces
  dose excreted: ~10%
[11]; human, serum, healthy volunteers, after dosing, read-out: time to peak serum concentrations
  Tmax: 1 to 2 h
[11]; in vivo
  metabolism: minimally metabolized
  route of elimination: primarily eliminated by renal excretion
[11]; orally-administered
  oral absorption: one hundred
[12]
  reduction in Minimum Erythema Dose from baseline at high plasma concentration: marked reduction in Minimum Erythema Dose from baseline
  reduction in Minimum Erythema Dose from baseline at low plasma concentration: no reduction in Minimum Erythema Dose from baseline
